Assay results: patent US7368454B2, “(3,4-dihydro-quinazolin-2-yl)-aryl-amines” (Hoffmann-La Roche Inc., priority 2005, dated 2008)

molecular target: T1, recombinant human 5-HT5A receptor (Homo sapiens, UniProt P47898); test: [3H]LSD radioligand binding assay; conditions: [3H]LSD approx. 1 nM; membranes from HEK-EBNA cells transiently expressing 5-HT5A; SPA; Ki from IC50 by Cheng-Prussoff equation
T1 construct: expressed in transfected cells; host or cells: Human Embryonic Kidney-EBNA (HEK-EBNA) cells, transient expression, membranes
T1 sequence (P47898 whole entry): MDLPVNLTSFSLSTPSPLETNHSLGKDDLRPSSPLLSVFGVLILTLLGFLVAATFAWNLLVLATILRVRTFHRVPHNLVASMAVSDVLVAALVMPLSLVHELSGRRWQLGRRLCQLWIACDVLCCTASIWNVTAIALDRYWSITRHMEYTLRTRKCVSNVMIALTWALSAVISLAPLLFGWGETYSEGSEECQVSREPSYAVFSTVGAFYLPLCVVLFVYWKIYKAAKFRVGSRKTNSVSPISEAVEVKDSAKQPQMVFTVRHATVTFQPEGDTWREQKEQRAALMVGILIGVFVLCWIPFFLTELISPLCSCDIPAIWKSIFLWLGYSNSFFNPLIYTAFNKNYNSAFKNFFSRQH
Method: A [^3H]LSD radioligand binding assay was used to determine the affinity of the compounds for the recombinant human 5-HT5A receptor, in membranes from transiently (cDNA) expressed 5-HT 5A receptors in Human Embryonic Kidney-EBNA (HEK-EBNA) cells. Assay buffer consisted of Tris (50 mM) buffer containing 1 mM EGTA, 10 mM MgCl2 (pH 7.4) and 10 μM pargyline. The binding assay was carried out in 96-well-plates in the presence of [^3H]LSD (approximately 1 nM), approximately 2 μg/well of membrane protein, and 0.5 mg of Ysi-poly-1-lysine SPA beads in a final volume of 200 μl of buffer. Non-specific binding was defined using methiothepin 2 μM. Compounds were tested at 10 concentrations. All assays were conducted in duplicate and repeated at least two times. Assay plates were incubated for 120 min at room temperature before centrifugation. Bound ligand was determined using a Packard Topcount scintillation counter. IC50 values were calculated using a non-linear curve fitting program and Ki values calculated using the Cheng-Prussoff equation.

| Structure (SMILES) | Ki [nM] |
| --- | --- |
| FC(F)(F)c1cccc(NC2=Nc3ccccc3CN2)c1 [Example 2, (3,4-Dihydro-quinazolin-2-yl)-(3-trifluoromethyl-phenyl)-amine] | 91 |
| Cc1cccc2c1CNC(Nc1cccc(C(F)(F)F)c1)=N2 [Example 1, (5-Methyl-3,4-dihydro-quinazolin-2-yl)-(3-trifluoromethyl-phenyl)-amine] | 85 |
| Cc1cccc(NC2=Nc3ccccc3CN2)c1 [Example 4, (3,4-Dihydro-quinazolin-2-yl)-m-tolyl-amine] | 143 |
| c1ccc2c(c1)CNC(Nc1cccc3ccccc13)=N2 [Example 6, (3,4-Dihydro-quinazolin-2-yl)-naphthalen-1-yl-amine] | 155 |
| c1ccc2c(c1)CNC(Nc1ccc3c(c1)CCC3)=N2 [Example 5, (3,4-Dihydro-quinazolin-2-yl)-indan-5-yl-amine] | 149 |
| FC(F)(F)c1cccc(NC2=Nc3cccc(Cl)c3CN2)c1 [Example 3, (5-Chloro-3,4-dihydro-quinazolin-2-yl)-(3-trifluoromethyl-phenyl)-amine] | 118 |

Now from value to molecule:

| Ki [nM] | Structure (SMILES) |
| --- | --- |
| 990 | Clc1ccc(NC2=Nc3ccccc3CN2)cc1 [Example 15, (4-Chloro-phenyl)-(3,4-dihydro-quinazolin-2-yl)-amine] |
| 1000 | Fc1ccccc1NC1=Nc2ccccc2CN1 [Example 16, (3,4-Dihydro-quinazolin-2-yl)-(2-fluoro-phenyl)-amine; hydriodide] |
| 300 | Clc1cccc(NC2=Nc3ccccc3CN2)c1 [Example 10, (3-Chloro-phenyl)-(3,4-dihydro-quinazolin-2-yl)-amine] |
